Data reported in ChEMBL document CHEMBL1201862, “PubChem BioAssay data set” (2004).
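Interpolation was linear, between the two tested concentrations surrounding the appropriate level; five concentrations were tested over 48 hours in 96-well plates. Abbreviation: GI50, concentration required for 50% inhibition of growth.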 Calls of active or inactive are those of the source. No stated cut-off is given here; in the data, active = GI50 up to about 1.1 µM and inactive = higher.

Assays:
Assay in all cases: NCI-60 cell line screen, 48 h
A549 = system: A549
CCRF-CEM = system: CCRF-CEM
HCT-116 = system: HCT-116
HOP-62 = system: HOP-62
IGROV-1 = system: IGROV-1
KM12 = system: KM12
Malme-3M = system: Malme-3M
NCI-H460 = system: NCI-H460
NCI-H522 = system: NCI-H522
OVCAR-3 = system: OVCAR-3
OVCAR-5 = system: OVCAR-5
RPMI-8226 = system: RPMI-8226
SNB-75 = system: SNB-75
SK-MEL-2 = system: SK-MEL-2
TK-10 = system: TK-10

Row | SMILES | GI50 (A549) | GI50 (CCRF-CEM) | GI50 (HCT-116) | GI50 (HOP-62) | GI50 (IGROV-1) | GI50 (KM12) | GI50 (Malme-3M) | GI50 (NCI-H460) | GI50 (NCI-H522) | GI50 (OVCAR-3) | GI50 (OVCAR-5) | GI50 (RPMI-8226) | GI50 (SNB-75) | GI50 (SK-MEL-2) | GI50 (TK-10)
1 | COc1ccc(/C(=N/NC(N)=O)C(c2ccc(OC)cc2)C2C(=O)Oc3ccccc32)cc1 (stereo unspecified) | > 100 µM (inactive) | > 100 µM (inactive) | > 100 µM (inactive) | > 100 µM (inactive) | > 100 µM (inactive) | > 100 µM (inactive) | > 100 µM (inactive) | > 100 µM (inactive) | > 100 µM (inactive) | > 100 µM (inactive) | > 100 µM (inactive) | > 100 µM (inactive) | > 100 µM (inactive) |  | 
2 | N#CC1=C(c2ccccc2)NN(Cc2ccccc2)C(c2ccc(Cl)cc2)CC1=O (stereo unspecified) | 18.2 µM (inactive) | 7.89 µM (inactive) | 18.7 µM (inactive) |  |  | 25.8 µM (inactive) |  | 18 µM (inactive) | 12.7 µM (inactive) |  | 34 µM (inactive) | 18.8 µM (inactive) | 18.3 µM (inactive) | 25.8 µM (inactive) | 42.8 µM (inactive)
3 | COC(=O)/C(=C/CC(N=C(c1ccccc1)c1ccccc1)C(=O)OC)N=C(c1ccccc1)c1ccccc1 (stereo unspecified) | > 100 µM (inactive) | > 100 µM (inactive) | > 100 µM (inactive) | > 100 µM (inactive) | > 100 µM (inactive) | > 100 µM (inactive) | > 100 µM (inactive) | > 100 µM (inactive) | 38.5 µM (inactive) | > 100 µM (inactive) |  | 79.3 µM (inactive) | 12.4 µM (inactive) | > 100 µM (inactive) | > 100 µM (inactive)
4 | CN(C)C(=Nc1nc(N(C)C)s[s+]1)N(C)C | > 100 µM (inactive) | > 100 µM (inactive) |  | > 100 µM (inactive) | > 100 µM (inactive) | > 100 µM (inactive) |  | > 100 µM (inactive) | > 100 µM (inactive) |  | > 100 µM (inactive) | > 100 µM (inactive) | > 100 µM (inactive) | > 100 µM (inactive) | > 100 µM (inactive)
5 | Cc1ccc2[nH]c3c(C)c4c(c(C)c3c2c1)CN(C)C=C4 | 0.37 µM (active) |  | 2.32 µM (inactive) | 0.743 µM (active) | 0.698 µM (active) | 0.54 µM (active) |  | 2.74 µM (inactive) | 0.152 µM (active) | 2.75 µM (inactive) | 3.1 µM (inactive) | 5.35 µM (inactive) | 0.75 µM (active) | 1.72 µM (inactive) | 9.29 µM (inactive)
6 | CC(=O)Nc1ccc(-c2nnc(SCC(=O)Nc3ccc(Cl)cc3Cl)o2)cc1 | > 100 µM (inactive) | 25.4 µM (inactive) | 40.5 µM (inactive) | 70 µM (inactive) | 37.1 µM (inactive) | 65.9 µM (inactive) | 20.7 µM (inactive) | 32.9 µM (inactive) | 20.7 µM (inactive) | 18.6 µM (inactive) | > 100 µM (inactive) |  | 31.3 µM (inactive) | > 100 µM (inactive) | 96.8 µM (inactive)
7 | CC1(C)CCC[C@@]2(C)C1CC[C@H]1CC(O)C3(C)CCC12C3 (stereo partly specified) | 18.7 µM (inactive) | 26.4 µM (inactive) | 17.3 µM (inactive) | 19.1 µM (inactive) | 22.2 µM (inactive) | 17.5 µM (inactive) | 16.9 µM (inactive) | 18.5 µM (inactive) | 16.6 µM (inactive) | 16.7 µM (inactive) | 18.2 µM (inactive) | 25.8 µM (inactive) | 22.9 µM (inactive) |  | 14.4 µM (inactive)
